ChEMBL document CHEMBL6087481, “Interleukin-1 Receptor-Associated Kinase 4 (IRAK4) Degraders for Treating Inflammatory Diseases: Advances and Prospects” (J Med Chem, 2025)

Columns and labels:
[1] = molecular target: T1, Interleukin-1 receptor-associated kinase 4 (Homo sapiens, UniProt Q9NWZ3); experiment: Inhibition of IRAK4 (unknown origin)
T1 sequence (Q9NWZ3 whole entry): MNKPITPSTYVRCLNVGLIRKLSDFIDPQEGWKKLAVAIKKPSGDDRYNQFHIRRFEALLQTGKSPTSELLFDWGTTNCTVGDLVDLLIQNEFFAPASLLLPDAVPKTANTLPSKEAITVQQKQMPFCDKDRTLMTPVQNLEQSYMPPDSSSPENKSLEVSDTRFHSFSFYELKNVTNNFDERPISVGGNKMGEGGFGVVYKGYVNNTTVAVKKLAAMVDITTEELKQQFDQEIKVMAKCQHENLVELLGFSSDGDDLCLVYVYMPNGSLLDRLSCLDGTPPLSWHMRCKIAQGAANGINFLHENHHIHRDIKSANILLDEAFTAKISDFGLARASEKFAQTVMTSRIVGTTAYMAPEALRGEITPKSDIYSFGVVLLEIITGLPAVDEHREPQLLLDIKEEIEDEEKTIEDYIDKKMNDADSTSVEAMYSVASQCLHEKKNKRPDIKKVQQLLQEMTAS

[2] = molecular target: von Hippel-Lindau disease tumor suppressor/Interleukin-1 receptor-associated kinase 4 (Homo sapiens, UniProt Q9NWZ3+P40337); experiment: PROTAC activity at VHL/IRAK4 in human HEK293T cells assessed as IRAK4 degradation measured after 24 hrs by immunoblotting analysis; format: cell-based
Chain of von Hippel-Lindau disease tumor suppressor/Interleukin-1 receptor-associated kinase 4 (P40337 whole entry, one chain of several): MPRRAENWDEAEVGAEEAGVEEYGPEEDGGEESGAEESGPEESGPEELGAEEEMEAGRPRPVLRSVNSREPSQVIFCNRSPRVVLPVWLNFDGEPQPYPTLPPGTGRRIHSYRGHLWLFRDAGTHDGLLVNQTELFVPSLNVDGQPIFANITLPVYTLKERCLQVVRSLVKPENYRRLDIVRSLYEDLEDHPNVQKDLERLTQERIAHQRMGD

[3] = molecular target: T2, Protein cereblon/Interleukin-1 receptor-associated kinase 4 (Mus musculus, UniProt Q8C7D2+Q8R4K2); experiment: PROTAC activity at IRAK4/CRBN in mouse RAW264.7 cells assessed as reduction in IRAK4 level incubated for 12 hrs by Western blot analysis; format: cell-based
T2 sequence (Q8C7D2 whole entry): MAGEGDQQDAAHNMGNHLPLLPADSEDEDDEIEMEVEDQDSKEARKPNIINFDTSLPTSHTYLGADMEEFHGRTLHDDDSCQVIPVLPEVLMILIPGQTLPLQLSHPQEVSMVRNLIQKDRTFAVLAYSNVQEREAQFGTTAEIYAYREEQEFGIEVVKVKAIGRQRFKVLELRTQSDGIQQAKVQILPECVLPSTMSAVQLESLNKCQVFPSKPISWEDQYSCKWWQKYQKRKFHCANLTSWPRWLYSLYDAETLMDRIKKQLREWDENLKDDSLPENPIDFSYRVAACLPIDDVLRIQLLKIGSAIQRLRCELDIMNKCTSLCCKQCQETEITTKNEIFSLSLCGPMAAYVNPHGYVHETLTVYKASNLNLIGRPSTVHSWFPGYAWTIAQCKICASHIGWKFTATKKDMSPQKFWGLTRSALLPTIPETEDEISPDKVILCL
T2 sequence (Q8R4K2 whole entry): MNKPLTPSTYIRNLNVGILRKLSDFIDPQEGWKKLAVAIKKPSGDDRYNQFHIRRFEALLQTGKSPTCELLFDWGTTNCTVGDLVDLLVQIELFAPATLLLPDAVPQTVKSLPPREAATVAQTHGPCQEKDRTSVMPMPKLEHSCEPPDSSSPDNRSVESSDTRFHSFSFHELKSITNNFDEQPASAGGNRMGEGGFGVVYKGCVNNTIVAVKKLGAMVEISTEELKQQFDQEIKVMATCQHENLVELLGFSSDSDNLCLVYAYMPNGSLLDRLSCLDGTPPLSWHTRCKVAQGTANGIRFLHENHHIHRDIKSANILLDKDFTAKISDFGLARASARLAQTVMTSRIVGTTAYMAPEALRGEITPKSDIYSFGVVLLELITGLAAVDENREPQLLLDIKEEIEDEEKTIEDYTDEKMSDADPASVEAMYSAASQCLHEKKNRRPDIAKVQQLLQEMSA

In the case of `CC(C)Nc1cc(-n2ccc3cc(C#N)cnc32)ncc1C(=O)N[C@H]1CC[C@H](C(=O)NC2CC2)CC1`, the IC50 [1] is reported as 0.003 µM.

In the case of `CC(C)Nc1cc(-n2ccc3cc(C#N)cnc32)ncc1C(=O)N[C@H]1CC[C@H](C(=O)NCCOCCNC(=O)Oc2cccc3c2C(=O)N(C2CCC(=O)NC2=O)C3=O)CC1` (stereo partly drawn), the DC50 [2] is reported as 0.405 µM.

`COc1cc(N2CCN(C(=O)CCOCC#Cc3ccc4c(c3)C(=O)N(C3CCC(=O)NC3=O)C4=O)CC2)ccc1NC(=O)c1cccc(-c2ccn[nH]2)n1` (stereo not drawn) was tested, and the DC50 [3] was 0.0473 µM.
